Data on twelve compounds can be found in patent US20090048112A1, “Novel Herbicides” (SYNGENTA LIMITED, priority 2005, published 2009).

Holding throughout (format): in vivo
For test [1], the system named is Echinochloa crus-galli (barnyard grass). As to the kind of experiment: Example B2: herbicidal action post emergence, 500 g/ha. Particulars: applied to the foliage, 13 days after application, 0 is no damage to plants, 100 is plants completely dead. As for the experimental part: (§1) Monocotyledonous and dicotyledonous test plants were sown in seed trays in standard compost and were grown for eight days. The trays were watered twice daily or as required. The chemicals were applied by track sprayer to the foliage. The application was carried out with an aqueous suspension of the test substances, prepared as a formulation of 50% acetone in water with 0.5% Tween 20™ (CAS RN 9005-64-5), to achieve a field equivalent of 1000 l/ha. The application rate of the test substances was 500 g/ha. A visual assessment of the herbicidal effect was made at 13 days after application. The following percentage scale was used for assessment: 0, 5, 10, 20, 30, 40, 50, 60, 70, 80, 90, 95, 100 (where O is no damage to plants and 100 is plants are completely dead).

For test [2], the system named is Alopecurus myosuroides (slender foxtail). The description is as above. The settings on record: applied to the foliage, 13 days after application, 0 is no damage to plants, 100 is plants completely dead. As for the experimental part: as §1
The test system of test [3] is Stellaria media (chickweed). The test is described as above. The settings on record: applied to the foliage, 13 days after application, 0 is no damage to plants, 100 is plants completely dead. As for the experimental part: as §1
Test [4] has as its system Amaranthus retroflexus (redroot pigweed). The description is as above. The settings on record: applied to the foliage, 13 days after application, 0 is no damage to plants, 100 is plants completely dead. As for the experimental part: as §1
The test system of test [5] is Monocotyledonous and dicotyledonous test plants. The test can be described thus: Example B1: herbicidal action prior to emergence (pre-emergence), 500 g/ha. The settings on record: 13 days after application, 0 = no damage, 100 = plants completely dead; for ALOMY herbicidal effect (visual assessment, percentage scale): Alopecurus myosuroides (slender foxtail); for AMARE herbicidal effect (visual assessment, percentage scale): Amaranthus retroflexus (redroot pigweed); for ECHCG herbicidal effect (visual assessment, percentage scale): Echinochloa crus-galli (barnyard grass); for STEME herbicidal effect (visual assessment, percentage scale): Stellaria media (chickweed). As for the experimental part:
as §1, with “standard compost.” for “standard compost and were grown for eight days.”, “sprayer at” for “sprayer to”, “the soil surface.” for “the foliage.”, “(where 0” for “(where O”

Test [6] has the same test system. As to the kind of experiment: Example B3: herbicidal action prior to emergence (pre-emergence), 96-cell seed trays, 1000 g/ha. Also on record: key: 0 is no damage to plant; 5 is total damage to plant. The settings on record: 9 days after application; for AGSTE herbicidal effect (visual assessment, scale 0-5): Agrostis tenius (Colonial bentgrass); for AMARE herbicidal effect (visual assessment, scale 0-5): Amaranthus retroflexus (redroot pigweed); for DIGSA herbicidal effect (visual assessment, scale 0-5): Digitaria sanguinalis (hairy finger-grass); for POATR herbicidal effect (visual assessment, scale 0-5): Poa trivialis (rough blue grass); for SETIT herbicidal effect (visual assessment, scale 0-5): Setaria italica (foxtail millet). Here is the method:
Monocotyledonous and dicotyledonous test plants were sown in sterilised standard soil in seed trays each with 96 cells. The seed trays were stored under controlled conditions in a climatic chamber for one day (cultivation at 23° C. during the day and 17° C. at night; 13 hours of light; 50-60% humidity). The chemicals were applied to the soil surface. The application was carried out with an aqueous suspension of the test substances, prepared as a formulation in water with 10% dimethyl sulfoxide (CAS RN 67-68-5), to achieve a field equivalent of 1000 l/ha. The application rate of the test substances was 1000 g/ha. The plants were grown on in the climatic chamber for 9 days (cultivation at 24° C. during the day and 19° C. at night; 13 hours of light; 50-60% humidity). A visual assessment of the herbicidal effect was made at 9 days after application. The following scale was used for assessment: 0, 1, 2, 3, 4 and 5 (where 0 is no damage to plant and 5 is total damage to plant).

As to `Cn1nc(C(F)(F)F)c(C[S+]([O-])c2ncc(Br)s2)c1OCC(F)(F)F` (stereo not shown) [Compound No. 1.002, 5-bromo-2-[1-methyl-5-(2,2,2-trifluoroethoxy)-3-trifluoromethyl-1H-pyrazol-4-ylmethanesulfinyl]-thiazole], in test [1], the “ECHCG, visual assessment of the herbicidal effect” value (shortened to “ECHCG, visual assessment”) is reported as 95%. In addition, the “ALOMY, visual assessment of the herbicidal effect” value (from here on “ALOMY, visual assessment”) in test [2] was found to be 95%. In addition, in test [3], the “STEME, visual assessment of the herbicidal effect” value (“STEME, visual assessment” for short) is 90%. Moreover, the “AMARE, visual assessment of the herbicidal effect” value (“AMARE, visual assessment” for short) in test [4] is 95%. Moreover, in test [5], the “ALOMY herbicidal effect (visual assessment, percentage scale)” value is on record as 95%; the “AMARE herbicidal effect (visual assessment, percentage scale)” value worked out at 100%; the “ECHCG herbicidal effect (visual assessment, percentage scale)” value is listed as 95%; the “STEME herbicidal effect (visual assessment, percentage scale)” value was found to be 100%.
With `Cn1nc(C(F)(F)F)c(C[S+]([O-])c2ncc(Cl)s2)c1OC(F)F` (racemic) [1.057], the “ECHCG, visual assessment” value in test [1] was determined as 80%. In addition, the “ALOMY, visual assessment” value in test [2] came to 90%. For the same compound, in test [3], the “STEME, visual assessment” value was 90%. For the same compound, the “AMARE, visual assessment” value in test [4] is 100%. For the same compound, in test [5], the “ALOMY herbicidal effect (visual assessment, percentage scale)” value was determined as 90%; the “AMARE herbicidal effect (visual assessment, percentage scale)” value amounted to 95%; the “ECHCG herbicidal effect (visual assessment, percentage scale)” value is given as 95%; the “STEME herbicidal effect (visual assessment, percentage scale)” value stood at 80%.
Take `Cn1nc(C(F)(F)F)c(CS(=O)(=O)c2ncc(Br)s2)c1OCC(F)(F)F` [Compound No. 1.003, 5-bromo-2-[1-methyl-5-(2,2,2-trifluoroethoxy)-3-trifluoromethyl-1H-pyrazol-4-ylmethanesulfonyl]-thiazole]: in test [1], the “ECHCG, visual assessment” value is recorded as 90%. The “ALOMY, visual assessment” value in test [2] was 80%. Moreover, the “STEME, visual assessment” value in test [3] was determined as 10%. Also, in test [5], the “ALOMY herbicidal effect (visual assessment, percentage scale)” value stood at 95%; the “AMARE herbicidal effect (visual assessment, percentage scale)” value stood at 95%; the “ECHCG herbicidal effect (visual assessment, percentage scale)” value came out at 95%; the “STEME herbicidal effect (visual assessment, percentage scale)” value was 70%.
For the compound `Cn1nc(C(F)(F)F)c(C[S+]([O-])c2ncc(Cl)s2)c1Cl` (racemic) [1.017], in test [1], the “ECHCG, visual assessment” value amounted to 60%. Moreover, the “ALOMY, visual assessment” value in test [2] was 70%. Further, the “STEME, visual assessment” value in test [3] was found to be 70%. The “AMARE, visual assessment” value in test [4] amounted to 70%. Besides, in test [5], the “ALOMY herbicidal effect (visual assessment, percentage scale)” value was determined as 95%; the “AMARE herbicidal effect (visual assessment, percentage scale)” value was 95%; the “ECHCG herbicidal effect (visual assessment, percentage scale)” value was 95%; the “STEME herbicidal effect (visual assessment, percentage scale)” value stood at 95%.
For the compound `Cn1nc(C(F)(F)F)c(C(F)(F)S(=O)(=O)c2ncc(Cl)s2)c1OCC(F)(F)F` [Compound No. 1.037], the “ECHCG, visual assessment” value in test [1] stood at 20%. Moreover, in test [2], the “ALOMY, visual assessment” value is recorded as 90%. Besides, the “STEME, visual assessment” value in test [3] is 70%. The “AMARE, visual assessment” value in test [4] is listed as 95%. Besides, in test [5], the “ALOMY herbicidal effect (visual assessment, percentage scale)” value turned out to be 60%; the “AMARE herbicidal effect (visual assessment, percentage scale)” value turned out to be 100%; the “ECHCG herbicidal effect (visual assessment, percentage scale)” value is listed as 95%; the “STEME herbicidal effect (visual assessment, percentage scale)” value is 95%.
For `Cn1nc(C(F)(F)F)c(CS(=O)(=O)c2ncc(Br)s2)c1OCC(F)F` [1.026], the “ECHCG, visual assessment” value in test [1] is recorded as 70%. The “ALOMY, visual assessment” value in test [2] came to 70%. The “STEME, visual assessment” value in test [3] was found to be 0%. For the same compound, the “AMARE, visual assessment” value in test [4] amounted to 60%. Besides, in test [5], the “ALOMY herbicidal effect (visual assessment, percentage scale)” value was determined as 60%; the “AMARE herbicidal effect (visual assessment, percentage scale)” value is on record as 90%; the “ECHCG herbicidal effect (visual assessment, percentage scale)” value came out at 95%; the “STEME herbicidal effect (visual assessment, percentage scale)” value came out at 0%.
In the case of `Cn1nc(C(F)(F)F)c(CS(=O)(=O)c2ncc(Br)s2)c1Cl` [Compound No. 1.006, 5-bromo-2-(5-chloro-1-methyl-3-trifluoromethyl-1H-pyrazol-4-ylmethanesulfonyl)-thiazole], the “ECHCG, visual assessment” value in test [1] came out at 80%. For the same compound, in test [2], the “ALOMY, visual assessment” value is on record as 70%. Besides, the “STEME, visual assessment” value in test [3] came to 0%. Also, the “AMARE, visual assessment” value in test [4] is listed as 30%. Further, in test [5], the “ALOMY herbicidal effect (visual assessment, percentage scale)” value is on record as 90%; the “AMARE herbicidal effect (visual assessment, percentage scale)” value stood at 95%; the “ECHCG herbicidal effect (visual assessment, percentage scale)” value worked out at 95%; the “STEME herbicidal effect (visual assessment, percentage scale)” value is listed as 30%.
As to `Cn1nc(C(F)(F)F)c(C[S+]([O-])c2ncc(Br)s2)c1Cl` (racemic) [1.005], in test [1], the “ECHCG, visual assessment” value turned out to be 80%. In addition, the “ALOMY, visual assessment” value in test [2] came to 80%. Also, in test [3], the “STEME, visual assessment” value turned out to be 70%. The “AMARE, visual assessment” value in test [4] is on record as 80%. In addition, in test [5], the “ALOMY herbicidal effect (visual assessment, percentage scale)” value is reported as 95%; the “AMARE herbicidal effect (visual assessment, percentage scale)” value came out at 100%; the “ECHCG herbicidal effect (visual assessment, percentage scale)” value amounted to 95%; the “STEME herbicidal effect (visual assessment, percentage scale)” value came to 60%.
Take `Cn1nc(C(F)(F)F)c(CS(=O)(=O)c2ncc(Cl)s2)c1OC(F)F` [1.058]: the “ECHCG, visual assessment” value in test [1] was 70%. Moreover, the “ALOMY, visual assessment” value in test [2] is 60%. Besides, in test [3], the “STEME, visual assessment” value was 0%. Moreover, the “AMARE, visual assessment” value in test [4] was determined as 80%. For the same compound, in test [5], the “ALOMY herbicidal effect (visual assessment, percentage scale)” value turned out to be 30%; the “AMARE herbicidal effect (visual assessment, percentage scale)” value is on record as 100%; the “ECHCG herbicidal effect (visual assessment, percentage scale)” value is 95%; the “STEME herbicidal effect (visual assessment, percentage scale)” value was 10%.
With `Cn1nc(C(F)(F)F)c(C[S+]([O-])c2ncc(Br)s2)c1OCC(F)F` (racemic) [1.025], the “ECHCG, visual assessment” value in test [1] amounted to 80%. In test [2], the “ALOMY, visual assessment” value turned out to be 70%. The “STEME, visual assessment” value in test [3] is 90%. In addition, the “AMARE, visual assessment” value in test [4] is recorded as 80%. In test [5], the “ALOMY herbicidal effect (visual assessment, percentage scale)” value was 95%; the “AMARE herbicidal effect (visual assessment, percentage scale)” value is given as 100%; the “ECHCG herbicidal effect (visual assessment, percentage scale)” value worked out at 95%; the “STEME herbicidal effect (visual assessment, percentage scale)” value was 90%.
Regarding `Cn1nc(OC(F)F)c(CS(=O)(=O)c2ncc(Cl)s2)c1C(F)(F)F` [Compound 1.055], in test [6], the “AGSTE herbicidal effect (visual assessment, scale 0-5)” value was 4; the “AMARE herbicidal effect (visual assessment, scale 0-5)” value is 2; the “DIGSA herbicidal effect (visual assessment, scale 0-5)” value worked out at 5; the “POATR herbicidal effect (visual assessment, scale 0-5)” value amounted to 5. For the same compound, the “SETIT herbicidal effect (visual assessment, scale 0-5)” value in test [6] is given as 5. Besides, in test [5], the “ALOMY herbicidal effect (visual assessment, percentage scale)” value came to 95%; the “AMARE herbicidal effect (visual assessment, percentage scale)” value is 0%; the “ECHCG herbicidal effect (visual assessment, percentage scale)” value came to 100%; the “STEME herbicidal effect (visual assessment, percentage scale)” value is on record as 0%.
Take `Cc1cnc([S+]([O-])Cc2c(C(F)(F)F)nn(C)c2OCC(F)(F)F)s1` (racemic) [Compound 1.074]: in test [6], the “AGSTE herbicidal effect (visual assessment, scale 0-5)” value is recorded as 5; the “AMARE herbicidal effect (visual assessment, scale 0-5)” value turned out to be 3; the “DIGSA herbicidal effect (visual assessment, scale 0-5)” value is listed as 5; the “POATR herbicidal effect (visual assessment, scale 0-5)” value came out at 5. The “SETIT herbicidal effect (visual assessment, scale 0-5)” value in test [6] is on record as 4. Further, in test [5], the “ALOMY herbicidal effect (visual assessment, percentage scale)” value was found to be 70%; the “AMARE herbicidal effect (visual assessment, percentage scale)” value was found to be 95%; the “ECHCG herbicidal effect (visual assessment, percentage scale)” value is 0%; the “STEME herbicidal effect (visual assessment, percentage scale)” value came to 80%.
